Source: patent publication US7087620B2, “Liquid pharmaceutical formulations containing 3,7-diazabicyclo[3,3,1]nonane compounds and methods of treatment relating to anti-arrhythmic events” (Solvay Pharmaceuticals GmbH, priority 2002, dated 2006)
Where two headings read alike, the source gives them in different places.

Experiments:
[1] = test system: patients with atrial fibrillation or flutter; assay: Placebo-controlled ascending dose study of intravenous tedisamil: conversion to normal sinus rhythm, overall (atrial fibrillation or flutter); type: in vivo, human; settings: for Conversion to NSR at any time within 2.5 hrs after start of infusion (%) / Conversion to NSR at any time within 2.5 hrs after start of infusion (converted/total): Overall, ITT patient sample, patients with DC cardioversion excluded
Method: A Multi-Center, Double-Blind, Randomized, Placebo-Controlled, Sequential Ascending Dose Groups Study to evaluate the Efficacy and Safety of Intravenous Tedisamil in the Rapid Conversion to Normal Sinus Rhythm in Patients with Atrial Fibrillation or Flutter was performed.
• Tedisamil (0.4 mg/kg body weight) • Tedisamil (0.6 mg/kg body weight) • Placebo • Dosages were given as a 30 minute intravenous infusion regimen. 1. Study Design
This multicenter trial was a double-blind, randomized, placebo-controlled, ascending dose groups study comparing the efficacy and safety of intravenous tedisamil treatment versus placebo in symptomatic patients with atrial fibrillation or flutter (>3 hours and <48 hours). The primary efficacy endpoint of this study was the termination of atrial fibrillation or flutter (for at least 60 seconds) within 2.5 hours after start of the infusion.
Following screening and baseline assessments, eligible patients were randomized to tedisamil or placebo with a sequential dose escalation approach. In the first stage, patients received 0.4 mg tedisamil/kg body weight or placebo over a 30 minutes infusion period, with half the dose infused during the first 10 minutes and half the dose infused over the remaining 20 minutes. After interim safety evaluation, in the second stage, patients received 0.6 mg tedisamil/kg body weight or placebo, with the same infusion regimen.
Patients were discharged from the telemetry unit 24 hours post infusion and safety follow up was to be obtained after 28 days. Blinded reviews of 12-lead ECGs (including 60 seconds rhythm strip) and 24 hour Holters to adjudicate the clinical endpoint (conversion to normal sinus rhythm) were performed centrally according to standard guidelines.
Tedisamil dihydrochloride, 0.4 mg/kg body weight, 0.6.mg/kg body weight was administered intravenously. The total infusion time was 30 minutes, with half the dose infused within 10 minutes, and half the dose infused within the remaining 20 minutes.
The percentage of patients converted to normal sinus rhythm (for at least 60 seconds) at any time within 2.5 hours after the initiation of the infusion of study drug.
The intent-to-treat patient sample was analyzed for efficacy. All tests were two-sided and a p-value <0.05 was considered significant. Differences in percentages of conversion were compared among the treatment groups using the Pearson chi-square statistic. Safety analysis was conducted on the safety patient sample. Numbers and percentages of patients with adverse events were calculated for each treatment group, using MedDRA preferred terms and body systems. Descriptive statistics were summarized by treatment group for changes from baseline in QT, heart rate and blood pressure.
This first clinical study was a Multi-Center, Double-Blind, Randomized, Placebo-Controlled, Sequential Ascending Dose Groups Study to evaluate the Efficacy and Safety of Intravenous Tedisamil in the Rapid Conversion to Normal Sinus Rhythm in Patients with Atrial Fibrillation or Flutter. The active ingredient used was tedisamil dihydrochloride. The study was designed as a phase II study and executed in 35 to 40 centers in 3 to 4 countries. Study duration: Screening: up to 48 hours; treatment (in-patient): single 30-minute infusion; safety follow up: 24 hours (in-patient) with continuous telemetry and 28 day safety follow up.
The following methodology was applied: A multi-center, double-blind, randomized, placebo-controlled, sequential ascending dose groups study to evaluate the efficacy and safety of intravenous tedisamil versus placebo. The study drug was infused over 30 minutes, receiving half the dose within 10 minutes and half the dose within the remaining 20 minutes. The first patient group received 0.4 mg/kg bodyweight (bw), infused as 0.2 mg/kg bw within 10 minutes, continued with 0.2 mg/kg bw infused within 20 minutes. […]

[2] = Two step infusion study in healthy male subjects: pharmacokinetics (Tedisamil plasma concentration); type: in vivo; settings: human; for Tmax: male, iv, 0.4 mg/kg, after start of infusion, 0.4 mg/kg iv two step infusion
Method: (§1) A double-blind, placebo-controlled, randomized, single iv dose, two periods cross-over study to assess the safety, tolerability, pharmacodynamics and pharmacokinetics during and following a two step infusion of Tedisamil in healthy male subjects was performed with the following drug and dosages: Tedisamil dihydrochloride/0.4 mg/kg body weight infused over 30 minutes.
Subjects were included in the study only if they were healthy males, their age was in the range of 18-40 years (both inclusive), their body mass index (BMI) was between 18 kg/m^2 and 28 kg/m^2. Test product, dose and mode of administration: Tedisamil dihydrochloride; Strength: 2 mg/ml; Dose: 0.4 mg/kg body weight infused over 30 minutes, with half of the dose infused over 10 minutes and half of the dose infused over the remaining 20 minutes. Route: intravenous.
Blood samples for determination of Tedisamil plasma concentration were taken at several time points during and following intravenous drug administration in both study periods. The following pharmacokinetic parameters were determined: AUC(0-inf), AUC(0-t), Cmax, Tmax, t1/2, λz, Vss, CL, MRT and the number of data points considered for the determination of terminal half life.
Geometric means and corresponding 90% confidence intervals were calculated for the plasma concentration of tedisamil at each time-point, for AUC, AUC(0-t), CL, and Cmax.
Arithmetic means and corresponding 90% confidence intervals were calculated for the other variables (Vss, λz, t1/2, MRT). Tmax was described using minimum, median, maximum, and frequency counts. Individual and mean plasma-concentration versus time curves were plotted using both linear and semi-logarithmic scale.

AF/AFL patients = assay: Single infusion over 10 minutes in AF/AFL patients; type: in vivo, human; settings: intravenous doses of up to 0.24 mg/kg TEDI base, infused over 10 minutes
healthy male subjects = assay: Two step infusion study in healthy male subjects: safety and tolerability; type: in vivo, human; settings: for Safety and tolerability: two step infusion of 0.4 mg tedisamil dihydrochloride per kg (0.32 mg/kg base)
Method: as §1
Screening assessments included physical examination, ECG, HIV/Hepatitis screening, blood pressure and heart rate measurements, clinical laboratory determinations, urine drug screen, alcohol breath test, and medical history. Follow-up assessments included physical examination, ECG, blood pressure and heart rate measurements, clinical laboratory determinations, and questions for adverse events and concomitant medication. During concomitant administration of Tedisamil, blood pressure, heart rate, and ECGs were recorded. Adverse events and concomitant medication were monitored throughout the study.
Subjects who received study medication, were considered valid for safety evaluation.
Treatment emergent adverse events, defined as any adverse event present at baseline that worsened or any event that began after treatment with study medication, were summarized by COSTART term for each treatment group. Each adverse event was evaluated for frequency of occurrence, duration, intensity, action taken, outcome, and relationship to administration of the study medication. Adverse events were listed for each subject.
Listings of abnormal or out of range values for each subject were presented for vital signs, laboratory assays, and physical examinations. Adverse events, blood pressure, heart rate and clinical laboratory data were analyzed descriptively and reviewed to evaluate the safety of all randomized subjects. Any clinical abnormalities were described.

C1CCC2(C1)C1CN(CC3CC3)CC2CN(CC2CC2)C1 [Tedisamil, N,N′-dicyclopropylmethyl-9,9-tetramethylene-3,7-diazabicyclo[3,3,1]nonane]
Conversion to NSR at any time within 2.5 hrs after start of infusion (%) ([1]; Female, 0.4 mg/kg): 31.6%
Conversion to NSR at any time within 2.5 hrs after start of infusion (converted/total) ([1]; Female, 0.4 mg/kg): 6/19
Conversion to NSR at any time within 2.5 hrs after start of infusion (%) ([1]; Female, 0.6 mg/kg): 36.4%
Conversion to NSR at any time within 2.5 hrs after start of infusion (converted/total) ([1]; Female, 0.6 mg/kg): 8/22
Conversion to NSR at any time within 2.5 hrs after start of infusion (%) ([1]; Male, 0.4 mg/kg): 45.2%
Conversion to NSR at any time within 2.5 hrs after start of infusion (converted/total) ([1]; Male, 0.4 mg/kg): 19/42
Conversion to NSR at any time within 2.5 hrs after start of infusion (%) ([1]; Male, 0.6 mg/kg): 61.3%
Conversion to NSR at any time within 2.5 hrs after start of infusion (converted/total) ([1]; Male, 0.6 mg/kg): 19/31
Gender difference in conversion rate ([1]; first study (Phase II), tedisamil dihydrochloride): male patients show a higher conversion rate compared to women
Conversion rates on extension of infusion beyond the times indicated ([1]; in vivo): did not produce higher conversion rates
Average time to cardioversion after the start of tedisamil administration ([1]; patients with atrial fibrillation or flutter of up to 48 hours duration, iv two-step infusion): 35 min
Conversion of atrial fibrillation and flutter to NSR (in words) ([1]; two-step infusion regimen): effective in conversion of atrial fibrillation and flutter to NSR
AUC(0-inf) ([2]; 0.4 mg/kg tedisamil dihydrochloride iv, two step infusion over 30 minutes, read-out: AUC(0-inf), Geom. Mean): 1720 ng·h/mL
AUC(0-t) ([2]; 0.4 mg/kg tedisamil dihydrochloride iv, two step infusion over 30 minutes, read-out: AUC(0-t), Geom. Mean): 1670 ng·h/mL
clearance ([2]; 0.4 mg/kg tedisamil dihydrochloride iv, two step infusion over 30 minutes, read-out: CL, Geom. Mean): 315 mL/min
Cmax ([2]; 0.4 mg/kg tedisamil dihydrochloride iv, two step infusion over 30 minutes, read-out: Cmax, Geom. Mean): 905 ng/mL
half-life ([2]; 0.4 mg/kg tedisamil dihydrochloride iv, two step infusion over 30 minutes, read-out: t½, Arithmetic mean (converted)): 330 min
Tmax ([2]; read-out: Time of peak plasma concentration (Tmax), median (converted)): 12.5 min
Tmax ([2]; read-out: Time of peak plasma concentration (Tmax), range): 5 to 75 min
Conversions in AF/AFL patients (AF/AFL patients): did not produce any conversions
Adverse events (AEs) (healthy male subjects; 0.4 mg/kg iv two step infusion, all judged probably related (injection site reaction, pain injection site, paresthesia)): six AEs were observed in five subjects
Systolic and diastolic blood pressure change (healthy male subjects; first four hours after dosing, 0.4 mg/kg iv two step infusion): small increase in the arithmetic mean of systolic and diastolic blood pressure
Pulse rate change (healthy male subjects; first hour after dosing, 0.4 mg/kg iv two step infusion): decrease in pulse rate
Safety and tolerability (healthy male subjects): safe and well tolerated
Safety and tolerability (healthy male subjects; listed as TEDI): safe and well tolerated
